# Test results taken from US5830885A, “Antiproliferative vitamin D3 hybrids” (The Johns Hopkins University, priority 1996, dated 1998).
# Several values for one entry are separate records, joined by “and”; a condition that tells them apart may be missing. Equal values may be shown once. Entries after “also recorded” stand apart in the source; their conditions may differ.
# Assays:
# [1] = tested on: cell proliferation; experiment: Anti-proliferative activity (summary statements); type: cell-based; conditions: compared with calcitriol or in general words
# [2] = target: T1, calf thymus VDR (Bos taurus, UniProt Q28037); experiment: VDR binding assay, displacement of [^3 H]-1,25(OH)2 D3 from VDR; conditions: for binding to the 1,25(OH)2-vitamin D3 receptor (VDR), % of calcitriol's binding / VDR binding affinity relative to that of calcitriol: relative to calcitriol; for Amount Bound (amount that results in 50% displacement of [^3 H]-1,25(OH)2 D3 from VDR): Table 6, calf thymus VDR; for times less strongly bound to VDR than 1,25(OH)2 D3: relative to 1,25(OH)2 D3
# T1 construct: from the calf thymus VDR; from tissue; host or cells: calf thymus
# T1 sequence (Q28037 1-426): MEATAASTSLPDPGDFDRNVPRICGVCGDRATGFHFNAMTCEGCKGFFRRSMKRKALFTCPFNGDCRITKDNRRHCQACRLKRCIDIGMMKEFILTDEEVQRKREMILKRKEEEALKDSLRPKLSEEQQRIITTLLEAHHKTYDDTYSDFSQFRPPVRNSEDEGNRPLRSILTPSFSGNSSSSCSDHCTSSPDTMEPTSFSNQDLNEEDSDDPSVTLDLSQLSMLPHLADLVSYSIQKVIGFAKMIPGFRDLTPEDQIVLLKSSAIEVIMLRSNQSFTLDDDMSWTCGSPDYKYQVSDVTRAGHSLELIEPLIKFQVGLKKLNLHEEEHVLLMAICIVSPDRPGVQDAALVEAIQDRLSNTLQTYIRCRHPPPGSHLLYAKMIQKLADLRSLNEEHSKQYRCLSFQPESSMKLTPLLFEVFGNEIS
# Experimental: The VDR binding assay was performed according to the procedure of Reinhardt, T. A., Horst, R. L., Orf, J. W., Hollis, B. W., J. Clin. Endocrin. Metab., 58: 91-98 (1984), the entire contents of which are hereby incorporated herein by reference.
# [3] = Crystallization behaviour; type: physicochemical
# [4] = tested on: murine keratinocyte cells (cell line PE); experiment: Growth inhibition of PE keratinocytes (MTT assay); type: cell-based; conditions: for inhibition of proliferation of PE cells: FIG. 7
# Experimental: (§1) The compounds were tested for growth inhibition of murine keratinocyte cells (cell line PE) and for the inhibition of TPA-induced ornithine decarboxylase (ODC) activity.
# The PE cell line culture medium used in the tests consisted of Eagle's minimal essential medium without calcium chloride supplemented with 8% chelexed fetal calf serum and 1% antibiotic-antimycotic and the addition of CaCl2 to 0.05 mM Ca^++.
# PE cells were seeded at a density of 5,000 cells/well in 50 μl medium into 96-well microtiter plates. […] The plates were fed once at 48 hours, with the re addition of the vitamin D3 analogues at this time. At 24 hour intervals following the initial treatment of the cells with compounds, 0.1 mg ([…] of a 2 mg/ml solution) of MTT was added to the plates. After 4 hours, the MTT was removed and DMSO added to dissolve the blue formazan dye. Using a microtiter plate reader, the A505 was then determined and cell number calculated from blank-subtracted absorbance values.
# [5] = tested on: HL-60 cells; experiment: Growth inhibition of HL-60 cells; type: cell-based; conditions: FIG. 8; YA and YB 10^-7 M, others 10^-6 M
# From the text: YA and YB were at concentrations of 10^-7 M; the other compounds were at concentrations of 10^-6 M.
# [6] = in vivo; cited from earlier work
# [7] = tested on: U 937 cancer cells; experiment: Viability of U 937 cancer cells (Table 5); type: cell-based; conditions: Homo sapiens
# [8] = tested on: ornithine decarboxylase (ODC); experiment: Inhibition of TPA-induced ornithine decarboxylase (ODC) activity in PE cells; type: cell-based, murine; conditions: 1 μM, 15 minutes pretreatment, p<0.001
# Experimental: as §1
# The cell line PE was derived from a papilloma induced in female SENCAR mice by a standard skin initiation/promotion protocol (Carcinogenesis, 7:949-958 (1986), the entire contents of which are hereby incorporated by reference) and was chosen for its particular sensitivity to the induction of ornithine decarboxylase (ODC) activity by the extensively characterized tumor promoter TPA. The PE cell line culture medium used in the tests consisted of Eagle's minimal essential medium without calcium chloride supplemented with 8% chelexed fetal calf serum and 1% antibiotic-antimycotic and the addition of CaCl2 to 0.05 mM Ca^++.
# 100 cm^2 dishes of PE cells were treated with vitamin D3 or analogues dissolved in DMSO by direct addition into the culture medium. Fifteen minutes later, the plates were treated with 100 ng/ml TPA dissolved in ethanol. […]
# Cytosolic ODC activity was determined in triplicate by measuring the release of ^14 CO2 from L-[^14 C]ornithine using an Eppendorf microvessel assay as previously described (Cancer Res., 43:2555-2559 (1983), the entire contents of which are hereby incorporated by reference).
# [9] = tested on: U 937 cancer cells; experiment: Induction of cell differentiation in U 937 cancer cells (Table 5); type: cell-based, human; conditions: at a concentration of 10^-8 M
# [10] = tested on: ornithine decarboxylase (ODC); conditions: literature; cited from earlier work
# [11] = tested on: Human lymphoma cells U 937; conditions: relative to calcitriol = 1; cited from earlier work
# [12] = tested on: Lewis rats; conditions: relative to calcitriol = 1; cited from earlier work
# [13] = tested on: Human lymphoma cells U 937; conditions: relative to calcitriol = 1; cited from earlier work; remark: listed apart in the source
# [14] = Solubility in organic solvents; type: physicochemical; conditions: methylene chloride, chloroform, methanol; for YA/YB also EtOAc, acetone
# [15] = tested on: keratinocyte; experiment: Dose-response effects on keratinocyte proliferation (FIGS. 3, 4, 9, 10); type: cell-based; conditions: cell numbers at 0 and 96 hours
# Experimental: N0 represents the number of cells at zero hours and N1 represents the number of cells at 96 hours.
# [16] = tested on: calcium channels; experiment: Calcium channel opening assay; type: cell-based; conditions: Bay K 1 μM, in the experiments of each compound's line
smiles,measurement,setting,value
"C=C1/C(=C\C=C2/CCC[C@]3(C)[C@@H]([C@H](C)CCCC(C)(C)O)CC[C@@H]23)C[C@H](O)C[C@H]1CO [(+)-3, 1β-hydroxymethyl-3β-norhydroxy-3α, 25-dihydroxyvitamin D3]",anti-proliferative activity,[1],did not change the anti- proliferative or cell growth inhibitory activity
same,"binding to the 1,25(OH)2-vitamin D3 receptor (VDR), % of calcitriol's binding",[2],≤ 2%
same,ease of crystallization,[3],very difficult to crystallize
C=C1/C(=C\C=C2/CCC[C@]3(C)[C@@H]([C@@H](C)COCCCC(C)(C)O)CC[C@@H]23)C[C@H](O)C[C@H]1CO [JK 276-2],inhibition of proliferation of PE cells,[4],"inhibited proliferation of PE cells; also recorded: at much lower concentrations than their corresponding 1α,3β-stereoisomers"
same,"Amount Bound (amount that results in 50% displacement of [^3 H]-1,25(OH)2 D3 from VDR)",[2],22.5 ng
same,"times less strongly bound to VDR than 1,25(OH)2 D3",[2],about 1500 times
same,VDR binding affinity relative to that of calcitriol,[2],less than 10^-3
same,inhibition of growth of HL-60 cells,[5],even more effective than YB in inhibiting growth
C=C1/C(=C\C=C2/CCC[C@]3(C)[C@@H]([C@@H](C)CSc4cccc(C(C)(C)O)c4)CC[C@@H]23)C[C@@H](O)C[C@@H]1O [GS 1500],serum half-life,[6],very short serum half-life
"C=C1/C(=C\C=C2/CCC[C@]3(C)[C@@H]([C@H](C)CCCC(C)(C)O)CC[C@@H]23)C[C@@H](O)C[C@@H]1O [Calcitriol, 1α,25-dihydroxyvitamin D3, reference compound]",viability at 0.1 µM,[7],99%
same,inhibition of TPA-induced ODC activity,[8],significantly inhibited the effects of TPA
same,inhibition of TPA-induced ODC activity,[8]; listed as calcitriol,statistically significant reduction in TPA-induced ODC activity
same,"growth inhibition of PE cells, comparison of potency",[4]; calcitriol vs 1-hydroxymethyl derivatives,equipotent at inhibiting growth of PE cells
same,inducing cell differentiation (in words),[9],effective in inducing cell differentiation
same,inhibition of TPA effects on ODC induction as well as TPA-stimulated tumor promotion,[10],shown to inhibit TPA effects on ODC induction
C=C1/C(=C\C=C2/CCC[C@]3(C)[C@@H]([C@H](C)/C=C/[C@@H](O)C4CC4)CC[C@@H]23)C[C@@H](O)C[C@@H]1O [Mc-903 (Calcipotriol)],"Relative Potency, Inhibition of Proliferation",[11],1.3
same,"Relative Potency, Calcemic Effects",[12],< 0.01
same,"Relative Potency, Induction of Differentiation",[13],1
"C=C1/C(=C\C=C2/CCC[C@]3(C)[C@@H]([C@H](C)CCCC(C)(C)O)CC[C@@H]23)C[C@@H](O)C[C@@H]1CO [(-)-2, 1α-hydroxymethyl-25-hydroxyvitamin D3]",anti-proliferative activity,[1],did not change the anti- proliferative or cell growth inhibitory activity
same,"binding to the 1,25(OH)2-vitamin D3 receptor (VDR), % of calcitriol's binding",[2],≤ 2%
same,ease of crystallization,[3],easily crystallized
same,solubility in organic solvents,[14],unexpectedly poor solubility; also recorded: only sparingly soluble
C=C1/C(=C\C=C2/CCC[C@]3(C)C([C@H](C)CC#CC(C)(C)O)=CC[C@@H]23)C[C@H](O)C[C@H]1CO [JK III 7-2],anti-proliferative activity,[1],comparable to that of calcitriol
same,effect on keratinocyte proliferation,[15],equal to or greater than calcitriol
same,VDR binding affinity relative to that of calcitriol,[2],~ 10^-3
C=C1/C(=C\C=C2/CCC[C@]3(C)[C@@H]([C@@H](C)COCCCC(C)(C)O)CC[C@@H]23)C[C@@H](O)C[C@@H]1CO [JK 276-1],inhibition of proliferation of PE cells,[4],inhibited proliferation of PE cells
same,"Amount Bound (amount that results in 50% displacement of [^3 H]-1,25(OH)2 D3 from VDR)",[2],1650 ng
same,VDR binding affinity relative to that of calcitriol,[2],less than 10^-3
same,inhibition of growth of HL-60 cells,[5],more modest effect
C=C1/C(=C\C=C2/CCC[C@]3(C)[C@@H]([C@H](C)/C=C/C=C/C(O)(CC)CC)CC[C@@H]23)C[C@H](O)C[C@H]1CO [MCW 068-Y-EE],anti-proliferative activity,[1],comparable to that of calcitriol
same,effect on keratinocyte proliferation,[15],much greater anti proliferative activity than MCW 068-Y-ED
same,VDR binding affinity relative to that of calcitriol,[2],~ 10^-3
"C=C1/C(=C\C=C2/CCC[C@]3(C)[C@@H]([C@@H](C)OCCCC(O)(CC)CC)CC[C@@H]23)C[C@H](O)C[C@H]1CCF [RHH 045 B, 1α- and 1β-(2-Fluoroethyl)-25-hydroxyvitamin D3 Homologs]",anti-proliferative activity,[1],comparable to that of calcitriol
same,effect on keratinocyte proliferation,[15],far more effective in inhibiting cell proliferation
same,VDR binding affinity relative to that of calcitriol,[2],~ 10^-3
C=C1/C(=C\C=C2/CCC[C@]3(C)[C@@H]([C@@H](C)CSc4cccc(C(C)(C)O)c4)CC[C@@H]23)C[C@@H](O)C[C@@H]1CO [JK 277-1],inhibition of proliferation of PE cells,[4],inhibited proliferation of PE cells
same,"Amount Bound (amount that results in 50% displacement of [^3 H]-1,25(OH)2 D3 from VDR)",[2],1450 ng
same,VDR binding affinity relative to that of calcitriol,[2],less than 10^-3
same,inhibition of growth of HL-60 cells,[5],more modest effect
"COC(=O)C1=C(C)NC(C)=C([N+](=O)[O-])C1c1ccccc1C(F)(F)F (stereo not shown) [Bay K, reference compound]",Average peak shift compared to control,[16],28.3 ± 5.6 mV and 29.0 ± 1.4 mV and 26.3 ± 4.5 mV and 27.9 ± 5.3 mV
C=C1/C(=C\C=C2/CCC[C@]3(C)C([C@H](C)CC#CC(C)(C)O)=CC[C@@H]23)C[C@@H](O)C[C@@H]1CO [JK III 7-1],effect on keratinocyte proliferation,[15],appears ineffective in reducing cell proliferation
C=C1/C(=C\C=C2/CCC[C@]3(C)[C@@H]([C@H](C)/C=C/C=C/C(O)(CC)CC)CC[C@@H]23)C[C@@H](O)C[C@@H]1O [EB1089],"Relative Potency, Inhibition of Proliferation",[11],68
same,"Relative Potency, Calcemic Effects",[12],0.4
same,"Relative Potency, Induction of Differentiation",[13],67
C=C1/C(=C\C=C2/CCC[C@]3(C)[C@@H]([C@@H](C)CSc4cccc(C(C)(C)O)c4)CC[C@@H]23)C[C@H](O)C[C@H]1CO [JK 277-2],inhibition of proliferation of PE cells,[4],"inhibited proliferation of PE cells; also recorded: at much lower concentrations than their corresponding 1α,3β-stereoisomers"
same,"Amount Bound (amount that results in 50% displacement of [^3 H]-1,25(OH)2 D3 from VDR)",[2],40 ng
same,"times less strongly bound to VDR than 1,25(OH)2 D3",[2],~3750 times
same,VDR binding affinity relative to that of calcitriol,[2],less than 10^-3
same,inhibition of growth of HL-60 cells,[5],even more effective than YB in inhibiting growth
